The values below come from paper PMC5003625 (Journal of medicinal chemistry, 2016).

SMILES strings stand for the structures.

Assay [1] has as its target EZH1 pentameric complex (EZH1:EED:SUZ12:RBBP4:AEBP2) (Homo sapiens, UniProt Q92800). Nature of the assay: Methyltransferase activity assay. Format: biochemical. As to conditions: for fold loss of potency for EZH1: relative to the parent compound 5.
Assay [2] has as its target EZH2 trimeric complex (EZH2:EED:SUZ12) (Homo sapiens, UniProt Q15910). The assay can be described thus: Methyltransferase activity assay. Format: biochemical. The conditions noted are these: for fold loss of potency for EZH2: relative to the parent compound of the sentence (5, 24 or 53).

Sequence of EZH2 trimeric complex (EZH2:EED:SUZ12) (Q15910 whole entry): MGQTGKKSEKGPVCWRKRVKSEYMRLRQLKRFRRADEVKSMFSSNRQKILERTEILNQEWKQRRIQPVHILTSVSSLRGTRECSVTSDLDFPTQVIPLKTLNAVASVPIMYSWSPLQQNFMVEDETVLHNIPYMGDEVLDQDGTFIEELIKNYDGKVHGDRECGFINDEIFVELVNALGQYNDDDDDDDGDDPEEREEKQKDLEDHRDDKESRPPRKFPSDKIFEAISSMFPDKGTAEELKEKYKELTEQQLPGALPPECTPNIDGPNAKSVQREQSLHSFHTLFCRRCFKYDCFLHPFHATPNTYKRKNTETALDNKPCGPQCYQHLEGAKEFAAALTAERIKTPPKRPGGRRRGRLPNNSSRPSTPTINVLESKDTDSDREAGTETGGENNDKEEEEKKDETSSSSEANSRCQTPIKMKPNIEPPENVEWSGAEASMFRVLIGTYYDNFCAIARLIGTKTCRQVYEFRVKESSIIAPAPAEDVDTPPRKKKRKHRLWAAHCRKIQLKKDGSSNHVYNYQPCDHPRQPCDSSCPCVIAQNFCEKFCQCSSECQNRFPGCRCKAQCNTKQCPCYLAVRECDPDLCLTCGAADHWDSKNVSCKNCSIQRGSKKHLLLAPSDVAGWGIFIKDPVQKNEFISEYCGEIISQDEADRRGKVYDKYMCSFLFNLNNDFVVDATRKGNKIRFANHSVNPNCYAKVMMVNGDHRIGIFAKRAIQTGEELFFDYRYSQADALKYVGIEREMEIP
Sequence of EZH2 trimeric complex (EZH2:EED:SUZ12) (O75530 whole entry partner): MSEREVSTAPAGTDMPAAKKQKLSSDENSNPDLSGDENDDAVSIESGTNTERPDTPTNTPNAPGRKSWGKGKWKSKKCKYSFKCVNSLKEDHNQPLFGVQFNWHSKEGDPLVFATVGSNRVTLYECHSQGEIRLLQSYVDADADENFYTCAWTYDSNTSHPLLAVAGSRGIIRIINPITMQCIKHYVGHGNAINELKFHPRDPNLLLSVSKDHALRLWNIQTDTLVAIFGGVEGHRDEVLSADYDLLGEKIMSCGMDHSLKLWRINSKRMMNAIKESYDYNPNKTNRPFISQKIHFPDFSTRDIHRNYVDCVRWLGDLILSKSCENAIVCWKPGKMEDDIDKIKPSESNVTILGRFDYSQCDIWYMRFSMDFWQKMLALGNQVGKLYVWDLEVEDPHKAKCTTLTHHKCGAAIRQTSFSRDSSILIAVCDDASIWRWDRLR
Sequence of EZH2 trimeric complex (EZH2:EED:SUZ12) (Q15022 whole entry partner): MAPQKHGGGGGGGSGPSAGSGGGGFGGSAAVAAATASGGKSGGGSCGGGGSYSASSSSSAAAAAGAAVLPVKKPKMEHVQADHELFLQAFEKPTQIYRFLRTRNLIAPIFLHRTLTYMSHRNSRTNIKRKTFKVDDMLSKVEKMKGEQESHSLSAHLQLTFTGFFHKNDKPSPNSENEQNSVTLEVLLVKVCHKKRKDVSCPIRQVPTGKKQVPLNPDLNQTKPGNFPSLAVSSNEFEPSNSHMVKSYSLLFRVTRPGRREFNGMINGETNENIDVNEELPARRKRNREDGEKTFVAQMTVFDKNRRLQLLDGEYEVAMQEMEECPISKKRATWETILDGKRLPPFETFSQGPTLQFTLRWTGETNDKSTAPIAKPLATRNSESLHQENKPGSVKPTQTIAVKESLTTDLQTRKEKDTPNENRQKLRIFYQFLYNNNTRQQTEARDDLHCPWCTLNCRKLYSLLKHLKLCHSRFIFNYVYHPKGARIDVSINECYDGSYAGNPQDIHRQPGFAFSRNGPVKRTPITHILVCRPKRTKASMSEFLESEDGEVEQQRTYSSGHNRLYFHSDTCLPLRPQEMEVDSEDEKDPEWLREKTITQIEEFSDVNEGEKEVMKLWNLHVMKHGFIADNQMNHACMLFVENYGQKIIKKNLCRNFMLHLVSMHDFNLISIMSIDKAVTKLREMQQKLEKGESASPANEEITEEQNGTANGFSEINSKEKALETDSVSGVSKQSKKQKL
Sequence of EZH1 pentameric complex (EZH1:EED:SUZ12:RBBP4:AEBP2) (Q92800 whole entry): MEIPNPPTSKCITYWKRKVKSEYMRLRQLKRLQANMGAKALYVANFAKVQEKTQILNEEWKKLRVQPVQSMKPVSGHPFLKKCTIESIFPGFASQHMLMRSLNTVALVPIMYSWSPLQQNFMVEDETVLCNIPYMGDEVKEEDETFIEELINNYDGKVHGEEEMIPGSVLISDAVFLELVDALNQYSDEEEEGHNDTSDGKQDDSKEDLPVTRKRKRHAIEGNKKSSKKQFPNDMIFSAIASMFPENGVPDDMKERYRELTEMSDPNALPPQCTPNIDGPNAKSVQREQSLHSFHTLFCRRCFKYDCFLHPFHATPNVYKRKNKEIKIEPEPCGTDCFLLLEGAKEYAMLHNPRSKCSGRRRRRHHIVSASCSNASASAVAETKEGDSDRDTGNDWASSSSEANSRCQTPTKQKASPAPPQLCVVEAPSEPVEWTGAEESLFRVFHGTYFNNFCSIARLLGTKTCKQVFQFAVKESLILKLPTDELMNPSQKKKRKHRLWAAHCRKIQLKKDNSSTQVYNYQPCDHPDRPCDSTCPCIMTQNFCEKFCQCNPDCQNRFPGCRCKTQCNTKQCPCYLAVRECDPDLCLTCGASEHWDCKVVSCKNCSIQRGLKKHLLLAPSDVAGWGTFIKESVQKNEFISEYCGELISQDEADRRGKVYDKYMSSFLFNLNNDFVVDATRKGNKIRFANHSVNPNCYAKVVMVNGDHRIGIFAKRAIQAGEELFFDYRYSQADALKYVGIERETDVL
Sequence of EZH1 pentameric complex (EZH1:EED:SUZ12:RBBP4:AEBP2) (O75530 whole entry partner): as the sequence (O75530 whole entry partner) above
Sequence of EZH1 pentameric complex (EZH1:EED:SUZ12:RBBP4:AEBP2) (Q15022 whole entry partner): as the sequence (Q15022 whole entry partner) above
Sequence of EZH1 pentameric complex (EZH1:EED:SUZ12:RBBP4:AEBP2) (Q09028 whole entry partner): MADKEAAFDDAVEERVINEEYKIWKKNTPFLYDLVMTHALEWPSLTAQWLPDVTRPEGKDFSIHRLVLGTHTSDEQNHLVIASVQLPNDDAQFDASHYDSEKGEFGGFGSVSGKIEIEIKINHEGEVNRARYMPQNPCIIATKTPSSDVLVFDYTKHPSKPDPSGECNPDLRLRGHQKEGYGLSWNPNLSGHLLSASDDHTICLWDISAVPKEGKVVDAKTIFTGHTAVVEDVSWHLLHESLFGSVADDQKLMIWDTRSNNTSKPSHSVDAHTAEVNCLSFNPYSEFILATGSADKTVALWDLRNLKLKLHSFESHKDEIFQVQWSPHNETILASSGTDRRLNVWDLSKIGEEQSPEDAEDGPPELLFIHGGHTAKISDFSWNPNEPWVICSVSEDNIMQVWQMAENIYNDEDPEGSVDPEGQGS
Sequence of EZH1 pentameric complex (EZH1:EED:SUZ12:RBBP4:AEBP2) (Q6ZN18 whole entry partner): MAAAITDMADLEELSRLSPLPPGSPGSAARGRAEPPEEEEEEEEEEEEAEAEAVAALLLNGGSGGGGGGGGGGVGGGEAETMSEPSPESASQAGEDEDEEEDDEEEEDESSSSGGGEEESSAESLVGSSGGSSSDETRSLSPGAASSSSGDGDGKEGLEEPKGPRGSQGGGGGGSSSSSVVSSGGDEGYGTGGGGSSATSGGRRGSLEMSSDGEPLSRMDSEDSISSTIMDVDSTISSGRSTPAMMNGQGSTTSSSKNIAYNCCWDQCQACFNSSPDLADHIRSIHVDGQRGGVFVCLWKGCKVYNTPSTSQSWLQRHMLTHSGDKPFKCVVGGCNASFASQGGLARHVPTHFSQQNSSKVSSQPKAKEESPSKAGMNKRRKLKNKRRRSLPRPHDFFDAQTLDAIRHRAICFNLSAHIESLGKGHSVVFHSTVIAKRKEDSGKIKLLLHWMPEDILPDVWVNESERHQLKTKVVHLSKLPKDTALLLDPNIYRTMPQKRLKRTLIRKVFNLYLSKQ

As to `CCCc1cc(C)[nH]c(=O)c1CNC(=O)c1cc(N2CCNCC2)cc2c1cnn2C(C)C` [Compound 73, 1-Isopropyl-N-((6-methyl-2-oxo-4-propyl-1,2-dihydropyridin-3-yl)methyl)-6-(piperazin-1-yl)-1H-indazole-4-carboxamide], the “fold loss of potency for EZH1” value in assay [1] is “more than 10 fold”.

Turning to `CC(C)N1CCN(c2ccc(-c3cc(C(=O)NC4CC(C)(C)NC(C)(C)C4)c4cnn(C(C)C)c4c3)cn2)CC1` [Compound 43, 1-Isopropyl-6-(6-(4-isopropylpiperazin-1-yl)pyridin-3-yl)-N-(2,2,6,6-tetramethylpiperidin-4-yl)-1H-indazole-4-carboxamide], in assay [2], the “inhibitory activity against EZH2, in words” value was “complete loss of potency”. The “inhibitory activity against EZH1, in words” value in assay [1] is reported as “complete loss of potency”.

As for `CC(C)N1CCN(c2ccc(-c3cc(C(=O)NCc4cnc[nH]c4=O)c4cnn(C(C)C)c4c3)cn2)CC1` [Compound 41, 1-Isopropyl-6-(6-(4-isopropylpiperazin-1-yl)pyridin-3-yl)-N-((6-oxo-1,6-dihydropyrimidin-5-yl)methyl)-1H-indazole-4-carboxamide], the “inhibitory activity against EZH2, in words” value in assay [2] is on record as “completely abrogated inhibitory activity”. In assay [1], the “inhibitory activity against EZH1, in words” value is listed as “completely abrogated inhibitory activity”.

In the case of `CCC(C)c1cc(C)c(CNC(=O)c2cc(-c3ccc(N4CCN(C(C)C)CC4)nc3)cc3c2cnn3C(C)C)c(=O)[nH]1` (stereo not shown) [Compound 31, N-((6-(sec-Butyl)-4-methyl-2-oxo-1,2-dihydropyridin-3-yl)-methyl)-1-isopropyl-6-(6-(4-isopropylpiperazin-1-yl)pyridin-3-yl)-1H-indazole-4-carboxamide], the “inhibitory activity against EZH1, in words” value in assay [1] is listed as “did not exhibit appreciable inhibitory activity”.

Consider `Cc1cc(C(C)(C)C)[nH]c(=O)c1CNC(=O)c1cc(-c2ccc(N3CCN(C(C)C)CC3)nc2)cc2c1cnn2C(C)C` [Compound 32, N-((6-(tert-Butyl)-4-methyl-2-oxo-1,2-dihydropyridin-3-yl)-methyl)-1-isopropyl-6-(6-(4-isopropylpiperazin-1-yl)pyridin-3-yl)-1H-indazole-4-carboxamide], for which the “inhibitory activity against EZH2, in words” value in assay [2] was “complete loss of potency”. Also, the “inhibitory activity against EZH1, in words” value in assay [1] is given as “complete loss of potency”.

With `CCCc1cc(C)[nH]c(=O)c1CNC(=O)c1cc(-c2ccc(N3CCNCC3)nc2)cc2c1cnn2C(C)C` [Compound 65], the “inhibitory activity against EZH2, in words” value in assay [2] was “did not affect the potency”. For the same molecule, in assay [1], the “inhibitory activity against EZH1, in words” value is on record as “did not affect the potency”.

On to `CCCc1cc(C)[nH]c(=O)c1CNC(=O)c1cc(-c2ccc(C(F)(F)F)cc2)cc2c1cnn2C(C)C` [Compound 68, 1-Isopropyl-N-((6-methyl-2-oxo-4-propyl-1,2-dihydropyridin-3-yl)methyl)-6-(4-(trifluoromethyl)phenyl)-1H-indazole-4-carboxa-mide], for which the “inhibitory activity against EZH2, in words” value in assay [2] is reported as “relatively good potency”.

On to `CCCc1cc(C)[nH]c(=O)c1CNC(=O)c1cc(-c2ccc(F)cc2)cc2c1cnn2C(C)C` [Compound 67], for which the “inhibitory activity against EZH2, in words” value in assay [2] is on record as “relatively good potency”.

On to `CCCc1cc(C)[nH]c(=O)c1CNC(=O)c1cc(-c2ccccc2)cc2c1cnn2C(C)C` [Compound 66, 1-Isopropyl-N-((6-methyl-2-oxo-4-propyl-1,2-dihydropyridin-3-yl)methyl)-6-phenyl-1H-indazole-4-carboxamide], for which, in assay [2], the “inhibitory activity against EZH2, in words” value is recorded as “relatively good potency”.

Turning to `CCCc1cc(C)[nH]c(=O)c1CNC(=O)c1cc(C2CCNCC2)cc2c1cnn2C(C)C` [Compound 72, 1-Isopropyl-N-((6-methyl-2-oxo-4-propyl-1,2-dihydropyridin-3-yl)methyl)-6-(piperidin-4-yl)-1H-indazole-4-carboxamide], the “fold loss of potency for EZH1” value in assay [1] is reported as “more than 10 fold”.

With `CCCc1cc(C)[nH]c(=O)c1CNC(=O)c1cc(-c2ccc(N3CCN(C(C)C)CC3)nc2)cc2c1cnn2CCC1CCCCC1` [Compound 62, 1-(2-Cyclohexylethyl)-6-(6-(4-isopropylpiperazin-1-yl)pyridin-3-yl)-N-((6-methyl-2-oxo-4-propyl-1,2-dihydropyridin-3-yl)methyl)-1H-indazole-4-carboxamide], in assay [2], the “inhibitory activity against EZH2, in words” value was “significant drop in potency”.

As for `CCc1cc(C)[nH]c(=O)c1CNC(=O)c1cc(-c2ccc(N3CCN(C(C)C)CC3)nc2)cc2c1cnn2C(C)C` [Compound 25, N-((4-Ethyl-6-methyl-2-oxo-1,2-dihydropyridin-3-yl)methyl)-1-isopropyl-6-(6-(4-isopropylpiperazin-1-yl)pyridin-3-yl)-1H-indazole-4-carboxamide], the “fold increase in EZH1 potency” value in assay [1] (relative to compound 24) was “more than 3 fold”.

Turning to `CCCc1cc(C)[nH]c(=O)c1CNC(=O)c1cc(-c2ccc(N3CCN(C(C)C)CC3)nc2)cc2c1cnn2CC1CCCCC1` [Compound 59, 1-(Cyclohexylmethyl)-6-(6-(4-isopropylpiperazin-1-yl)pyridin-3-yl)-N-((6-methyl-2-oxo-4-propyl-1,2-dihydropyridin-3-yl)methyl)-1H-indazole-4-carboxamide], in assay [2], the “inhibitory activity against EZH2, in words” value is “significant drop in potency”.

With `CCCc1cc(C)[nH]c(=O)c1CNC(=O)c1cc(-c2ccc(N3CCN(C(C)C)CC3)nc2)cc2c1cnn2CC1CCCC1` [Compound 58, 1-(Cyclopentylmethyl)-6-(6-(4-isopropylpiperazin-1-yl)pyridin-3-yl)-N-((6-methyl-2-oxo-4-propyl-1,2-dihydropyridin-3-yl)methyl)-1H-indazole-4-carboxamide], the “fold loss of potency for EZH2” value in assay [2] was over 15 fold.

`CC(C)N1CCN(c2ccc(-c3cc(C(=O)NCc4ccc[nH]c4=O)c4cnn(C(C)C)c4c3)cn2)CC1` [Compound 34, 1-Isopropyl-6-(6-(4-isopropylpiperazin-1-yl)pyridin-3-yl)-N-((2-oxo-1,2-dihydropyridin-3-yl)methyl)-1H-indazole-4-carboxamide]: the “fold loss of potency for EZH2” value in assay [2] is over 500 fold.

With `CCCc1cc(C)[nH]c(=O)c1CNC(=O)c1cc(-c2ccc(N3CCN(C(C)C)CC3)nc2)c2cnn(C(C)C)c2c1` [Compound 47, 1-Isopropyl-4-(6-(4-isopropylpiperazin-1-yl)pyridin-3-yl)-N-((6-methyl-2-oxo-4-propyl-1,2-dihydropyridin-3-yl)methyl)-1H-inda-zole-6-carboxamide], the “inhibitory activity against EZH1, in words” value in assay [1] is recorded as “abolished all EZH1 inhibition”.

Consider `CCCc1cc(C)[nH]c(=O)c1CNC(=O)c1cc(Br)cc2c1cnn2C(C)C` [Compound 76, 6-Bromo-1-isopropyl-N-((6-methyl-2-oxo-4-propyl-1,2-dihydro-pyridin-3-yl)methyl)-1H-indazole-4-carboxamide], for which the “fold loss of potency for EZH2” value in assay [2] is 3–4 fold.

`CCc1cc(C)c(CNC(=O)c2cc(-c3ccc(N4CCN(C(C)C)CC4)nc3)cc3c2cnn3C(C)C)c(=O)[nH]1` [Compound 30, N-((6-Ethyl-4-methyl-2-oxo-1,2-dihydropyridin-3-yl)methyl)-1-isopropyl-6-(6-(4-isopropylpiperazin-1-yl)pyridin-3-yl)-1H-indazole-4-carboxamide]: the “inhibitory activity against EZH1, in words” value in assay [1] is “did not exhibit appreciable inhibitory activity”.
